Laboratory results taken from patent publication US8633206B2, “Pyrrolo[2,3-D]pyrimidine compounds” (Pfizer Inc., priority 2009, dated 2014).

Columns and labels:
Type in all cases: biochemical
JAK2 = JAK2 (Homo sapiens (Human), UniProt O60674); assay: JAK enzymatic assay (peptide mobility shift), JAK2; settings: recombinant JAK2 2 nM, JAKtide peptide, 150 minutes
JAK1 = JAK1 (Homo sapiens (Human), UniProt P23458); assay: JAK enzymatic assay (peptide mobility shift), JAK1; settings: recombinant JAK1 20 nM, IRS-1 peptide, 240 minutes
JAK3 = JAK3 (Homo sapiens (Human), UniProt P52333); assay: JAK enzymatic assay (peptide mobility shift), JAK3; settings: recombinant JAK3 1 nM, JAKtide peptide, 90 minutes
Sequence of JAK3 (P52333 781-1124): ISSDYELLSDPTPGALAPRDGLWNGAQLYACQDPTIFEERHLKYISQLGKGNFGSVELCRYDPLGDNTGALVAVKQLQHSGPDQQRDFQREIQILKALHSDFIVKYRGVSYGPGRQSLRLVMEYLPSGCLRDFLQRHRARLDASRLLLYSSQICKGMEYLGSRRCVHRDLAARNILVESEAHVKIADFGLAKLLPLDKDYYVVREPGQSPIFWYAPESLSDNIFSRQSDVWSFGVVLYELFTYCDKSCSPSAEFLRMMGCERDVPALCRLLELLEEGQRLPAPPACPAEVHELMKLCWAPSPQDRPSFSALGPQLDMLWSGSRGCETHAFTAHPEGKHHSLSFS

Sequence of JAK2 (O60674 808-1132): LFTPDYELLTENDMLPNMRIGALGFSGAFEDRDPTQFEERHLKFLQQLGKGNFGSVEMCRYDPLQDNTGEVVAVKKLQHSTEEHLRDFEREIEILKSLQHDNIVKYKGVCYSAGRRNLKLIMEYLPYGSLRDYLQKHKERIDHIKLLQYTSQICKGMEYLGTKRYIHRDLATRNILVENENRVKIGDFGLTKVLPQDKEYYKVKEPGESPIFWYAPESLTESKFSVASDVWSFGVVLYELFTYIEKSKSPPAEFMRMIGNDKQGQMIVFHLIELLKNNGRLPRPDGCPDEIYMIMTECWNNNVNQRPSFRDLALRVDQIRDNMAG
Sequence of JAK1 (P23458 whole entry): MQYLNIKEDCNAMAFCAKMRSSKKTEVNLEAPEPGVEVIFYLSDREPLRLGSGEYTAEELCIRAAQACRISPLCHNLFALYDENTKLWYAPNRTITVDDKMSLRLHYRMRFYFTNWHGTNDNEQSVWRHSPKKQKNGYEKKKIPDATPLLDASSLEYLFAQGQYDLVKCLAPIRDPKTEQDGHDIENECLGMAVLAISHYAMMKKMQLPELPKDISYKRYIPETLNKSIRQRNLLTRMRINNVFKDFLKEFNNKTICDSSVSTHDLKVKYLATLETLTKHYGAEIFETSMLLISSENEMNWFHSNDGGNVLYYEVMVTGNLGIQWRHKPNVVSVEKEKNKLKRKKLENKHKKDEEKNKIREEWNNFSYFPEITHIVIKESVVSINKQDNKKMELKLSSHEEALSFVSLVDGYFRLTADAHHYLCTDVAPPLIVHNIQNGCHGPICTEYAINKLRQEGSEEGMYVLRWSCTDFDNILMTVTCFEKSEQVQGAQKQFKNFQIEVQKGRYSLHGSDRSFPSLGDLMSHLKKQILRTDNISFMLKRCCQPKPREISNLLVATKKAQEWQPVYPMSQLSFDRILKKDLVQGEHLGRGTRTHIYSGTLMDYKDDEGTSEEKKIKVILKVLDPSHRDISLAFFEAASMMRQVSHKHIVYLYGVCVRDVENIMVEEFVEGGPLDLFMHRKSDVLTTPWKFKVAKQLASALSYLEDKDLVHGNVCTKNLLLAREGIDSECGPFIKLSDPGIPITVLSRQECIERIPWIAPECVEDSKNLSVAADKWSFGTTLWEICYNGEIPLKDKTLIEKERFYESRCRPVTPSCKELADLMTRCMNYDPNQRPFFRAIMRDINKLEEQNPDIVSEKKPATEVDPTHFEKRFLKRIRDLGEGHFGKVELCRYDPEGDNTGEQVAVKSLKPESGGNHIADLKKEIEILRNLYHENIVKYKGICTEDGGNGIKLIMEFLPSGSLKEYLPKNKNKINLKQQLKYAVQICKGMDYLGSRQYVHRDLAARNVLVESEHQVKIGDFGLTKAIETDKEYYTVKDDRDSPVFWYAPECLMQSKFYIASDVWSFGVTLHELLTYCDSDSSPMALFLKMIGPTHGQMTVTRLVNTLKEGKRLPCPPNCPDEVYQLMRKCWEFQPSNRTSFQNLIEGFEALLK

SMILES	IC50 (JAK2) [nM]	IC50 (JAK1) [nM]	IC50 (JAK3) [nM]
CN(c1ncnc2[nH]ccc12)[C@H]1CC[C@H](CS(=O)(=O)N2CC[C@@](O)(COc3cccc(F)c3)C2)CC1 [Example 84, 3-[(3-fluorophenoxy)-methyl]-1-[({trans-4-[methyl(7H-pyrrolo[2,3-d]-pyrimidin-4-yl)amino]-cyclohexyl}methyl)sulfonyl] pyrrolidin-3-ol]	26.2	3.12	132
Cc1cc(CC[C@]2(O)CCN(S(=O)(=O)C[C@H]3CC[C@H](N(C)c4ncnc5[nH]ccc45)CC3)C2)on1 [Example 85, 3-[2-(3-methylisoxazol-5-yl)ethyl]-1-[({trans-4-[methyl(7H-pyrrolo[2,3-d]-pyrimidin-4-yl)amino]-cyclohexyl}methyl)sulfonyl] pyrrolidin-3-ol]	46.2	10.5	286
CN(c1ncnc2[nH]ccc12)[C@H]1CC[C@H](CS(=O)(=O)N2CC[C@H](Oc3ccccc3C#N)C2)CC1 [Example 88, 2-({(3S)-1-[({trans-4-[methyl(7H-pyrrolo[2,3-d]-pyrimidin-4-yl)amino]-cyclohexyl}methyl)sulfonyl]pyrrolidin-3-yl}oxy)-benzonitrile]	23.4	6.73	413
CN(C(=O)OC(C)(C)C)[C@H]1CCN(S(=O)(=O)C[C@H]2CC[C@H](N(C)c3ncnc4[nH]ccc34)CC2)C1 [Example 92, tert-butyl methyl{(3S)-1-[({trans-4-[methyl(7H-pyrrolo[2,3-d]pyrimidin-4-yl)amino]cyclohexyl}methyl)-sulfonyl]pyrrolidin-3-yl}carbamate]	81	6.91	488
CN(c1ncnc2[nH]ccc12)[C@H]1CC[C@H](CS(=O)(=O)N2CC[C@H](c3ccccc3F)C2)CC1 [Example 93, N-[trans-4-({[3-(2-fluorophenyl)pyrrolidin-1-yl]sulfonyl}methyl)cyclo-hexyl]-N-methyl-7H-pyrrolo[2,3-d]pyrimidin-4-amine]	37.4	5.5	286
CCc1ccc(COC[C@H]2CCN(S(=O)(=O)C[C@H]3CC[C@H](N(C)c4ncnc5[nH]ccc45)CC3)C2)nc1 [Example 94, N-(trans-4-{[(3-{[(5-ethylpyridin-2-yl)methoxy]-methyl}pyrrolidin-1-yl)-sulfonyl]methyl}-cyclohexyl)-N-methyl-7H-pyrrolo[2,3-d]pyrimidin-4-amine]	63.6	17.5	678
CN(c1ncnc2[nH]ccc12)[C@H]1CC[C@H](CS(=O)(=O)N2CC[C@](CO)(CCO)C2)CC1 [Example 95, 2-{3-(hydroxymethyl)-1-[({trans-4-[methyl(7H-pyrrolo[2,3-d]pyrimidin-4-yl)amino]cyclohexyl}-methyl)sulfonyl]pyrrolidin-3-yl}-ethanol]	45.8	12.5	612
CN(c1ncnc2[nH]ccc12)[C@H]1CC[C@H](CS(=O)(=O)N2CC[C@H](COCc3cccnc3)C2)CC1 [Example 96, N-methyl-N-{trans-4-[({3-[(pyridin-3-ylmethoxy)-methyl]pyrrolidin-1-yl}-sulfonyl)methyl]-cyclohexyl}-7H-pyrrolo[2,3-d]pyrimidin-4-amine]	32.1	19.3	462
CN(c1ncnc2[nH]ccc12)[C@H]1CC[C@H](CS(=O)(=O)N2CC[C@H](OCC(=O)N3CCCC3)C2)CC1 [Example 98, N-methyl-N-[trans-4-({[3-(2-oxo-2-pyrrolidin-1-ylethoxy)pyrrolidin-1-yl]sulfonyl}methyl)cyclo-hexyl]-7H-pyrrolo[2,3-d]pyrimidin-4-amine]	29.6	4.37	386
CN(c1ncnc2[nH]ccc12)[C@H]1CC[C@H](CS(=O)(=O)N2CC[C@@H](c3ccccc3)C2)CC1 [Example 100, N-methyl-N-(trans-4-{[(3-phenylpyrrolidin-1-yl)sulfonyl]methyl}cyclo-hexyl)-7H-pyrrolo[2,3-d]pyrimidin-4-amine]	40.7	6.89	414
CCN(CC)C(=O)CO[C@@H]1CCN(S(=O)(=O)C[C@H]2CC[C@H](N(C)c3ncnc4[nH]ccc34)CC2)C1 [Example 101, N,N-diethyl-2-({(3R)-1-[({trans-4-[methyl(7H-pyrrolo[2,3-d]pyrimidin-4-yl)amino]cyclohexyl}-methyl)sulfonyl]pyrrolidin-3-yl}oxy)acetamide]	35.9	4.86	584
CN(c1ncnc2[nH]ccc12)[C@H]1CC[C@H](CS(=O)(=O)N2CC[C@H](Cc3cnccn3)C2)CC1 [Example 102, N-methyl-N-[trans-4-({[3-(pyrazin-2-ylmethyl)-pyrrolidin-1-yl]sulfonyl}-methyl)cyclohexyl]-7H-pyrrolo[2,3-d]pyrimidin-4-amine]	28.6	19.9	283
CN(c1ncnc2[nH]ccc12)[C@H]1CC[C@H](CS(=O)(=O)N2CC[C@](O)(c3ccccn3)C2)CC1 [Example 103, 1-[({trans-4-[methyl(7H-pyrrolo[2,3-d]pyrimidin-4-yl)-amino]cyclohexyl}-methyl)sulfonyl]-3-pyridin-2-ylpyrrolidin-3-ol]	35.8	10.6	294
CN(c1ncnc2[nH]ccc12)[C@H]1CC[C@H](CS(=O)(=O)N2CC[C@H](Cc3ccccc3)C2)CC1 [Example 104, N-(trans-4-{[(3-benzyl-pyrrolidin-1-yl)sulfonyl]-methyl}cyclohexyl)-N-methyl-7H-pyrrolo[2,3-d]-pyrimidin-4-amine]	65.4	18	721
CCN1CCN(C[C@H]2CCN(S(=O)(=O)C[C@H]3CC[C@H](N(C)c4ncnc5[nH]ccc45)CC3)C2)C(=O)C1=O [Example 105, 1-ethyl-4-({1-[({trans-4-[methyl(7H-pyrrolo[2,3-d]pyrimidin-4-yl)amino]cyclohexyl}methyl)-sulfonyl]pyrrolidin-3-yl}methyl)piperazine-2,3-dione]	90.4	17.8	755
Cc1cccc(C[C@H]2CCCN2S(=O)(=O)C[C@H]2CC[C@H](N(C)c3ncnc4[nH]ccc34)CC2)n1 [Example 106, N-methyl-N-{trans-4-[({2-[(6-methylpyridin-2-yl)methyl]pyrrolidin-1-yl}sulfonyl)methyl]cyclo-hexyl}-7H-pyrrolo[2,3-d]pyrimidin-4-amine]	24.3	3.6	322
CN(c1ncnc2[nH]ccc12)[C@H]1CC[C@H](CS(=O)(=O)N2CCC2)CC1 [Example 109, N-{trans-4-[(azetidin-1-ylsulfonyl)methyl]cyclo-hexyl}-N-methyl-7H-pyrrolo[2,3-d]pyrimidin-4-amine]	39.4	14.3	289

Now those with a lower IC50 (JAK2), led by results:

IC50 (JAK2) [nM]	IC50 (JAK1) [nM]	IC50 (JAK3) [nM]	SMILES
5.72	3.27	55.7	CN(c1ncnc2[nH]ccc12)[C@H]1CC[C@H](CS(=O)(=O)N2CC[C@H](c3ncccn3)C2)CC1 [Example 87, N-methyl-N-(trans-4-{[(3-pyrimidin-2-ylpyrrolidin-1-yl)sulfonyl]methyl}cyclo-hexyl)-7H-pyrrolo[2,3-d]pyrimidin-4-amine]
17.5	4.45	96.6	COc1ccccc1CS(=O)(=O)[C@H]1CCN(S(=O)(=O)C[C@H]2CC[C@H](N(C)c3ncnc4[nH]ccc34)CC2)C1 [Example 89, N-{trans-4-[({3-[(2-methoxybenzyl)sulfonyl]-pyrrolidin-1-yl}sulfonyl)-methyl]cyclohexyl}-N-methyl-7H-pyrrolo[2,3-d]-pyrimidin-4-amine]
9.3	1.8	82.3	CN(c1ncnc2[nH]ccc12)[C@H]1CC[C@H](CS(=O)(=O)N2CC[C@@](O)(Cn3cccn3)C2)CC1 [Example 90, 1-[({trans-4-[methyl(7H-pyrrolo[2,3-d]pyrimidin-4-yl)amino]cyclohexyl}methyl)-sulfonyl]-3-(1H-pyrazol-1-ylmethyl)pyrrolidin-3-ol]
10.8	1.92	76.6	CN(c1ncnc2[nH]ccc12)[C@H]1CC[C@H](CS(=O)(=O)N2CC[C@@](O)(c3ccccc3)C2)CC1 [Example 91, 1-[({trans-4-[methyl(7H-pyrrolo[2,3-d]pyrimidin-4-yl)amino]cyclohexyl}-methyl)sulfonyl]-3-phenylpyrrolidin-3-ol]
13.1	1.36	85.6	CN(c1ncnc2[nH]ccc12)[C@H]1CC[C@H](CS(=O)(=O)N2CC[C@@](O)(CSc3ccccn3)C2)CC1 [Example 97, 1-[({trans-4-[methyl(7H-pyrrolo[2,3-d]pyrimidin-4-yl)-amino]cyclohexyl}-methyl)sulfonyl]-3-[(pyridin-2-ylthio)-methyl]pyrrolidin-3-ol]
6.22	2.54	36.3	CN(c1ncnc2[nH]ccc12)[C@H]1CC[C@H](CS(=O)(=O)N2CC[C@H](c3ccccn3)C2)CC1 [Example 107, N-methyl-N-(trans-4-{[(3-pyridin-2-ylpyrrolidin-1-yl)sulfonyl]methyl}cyclo-hexyl)-7H-pyrrolo[2,3-d]pyrimidin-4-amine]
22.6	16.4	294	CN(c1ncnc2[nH]ccc12)[C@H]1CC[C@H](CS(=O)(=O)N2CC(c3ncccn3)C2)CC1 [Example 110, N-methyl-N-(trans-4-{[(3-pyrimidin-2-ylazetidin-1-yl)sulfonyl]methyl}cyclo-hexyl)-7H-pyrrolo[2,3-d]pyrimidin-4-amine]
9.99	1.55	111	CN(c1ncnc2[nH]ccc12)[C@H]1CC[C@H](CS(=O)(=O)N2CC(c3nnn[nH]3)C2)CC1 [Example 113, N-methyl-N-[trans-4-({[3-(1H-tetrazol-5-yl)azetidin-1-yl]sulfonyl}methyl)-cyclohexyl]-7H-pyrrolo[2,3-d]pyrimidin-4-amine]
